Assay results taken from US20240009150A1, “CAPSAICYNS IN THE TREATMENT OF LEAKY GUT” (AXICHEM AB [SE]/[SE], priority 2020, published 2024).
Entries after “also recorded” stand apart in the source; their conditions may differ. Read-outs that look alike come from different tables or passages of the source. Marks after values point to notes of the source that are not given here.

Tests used:
[1] = tested on: P. aeruginosa (ATCC® 15442); assay: Inhibition of biofilm formation, crystal violet staining assay; assay type: cell-based, Pseudomonas aeruginosa; details: for Biofilm (OD 595 nm): 24 hr; for Biofilm (OD 595 nm) / biofilm formed (CVSA), in words: 30° C.; for inhibition of biofilm formation, conclusion in words: any dose tested; for biofilm formed (CVSA), in words: concentrations less than 125 ug/ml
Experimental: (§1) A stock solution of 1000 ug of V and capsaicin was prepared by dissolving 1000 μg in 100 μl of ethanol and 900 μl of sterile water. The stock solutions were sequentially diluted with double volumes of solvent (10% aqueous ethanol solution) to yield 500/125//31.25/7.81 μg/ml test solutions.
(§2) P. aeruginosa (ATCC® 15442) was used to determine the biofilm inhibition activity. Inducer N-hexanoyl homoserine lactone (C6-HSL) was purchased from Sigma-Aldrich. ATCC® 15442 was cultivated in Luria-Bertani (LB) medium (LB, 5 g yeast extract, 10 g tryptone, 5 g NaCl, 1 L water) at 30° C. overnight under aerobic conditions.
(§3) Biofilm formation was quantified with modifications using the method described by Stepanovic et al. (Journal of Microbiological Methods, 2000, 40(2), 175-19) with modifications. Using a 96-well microplate duplicate the test solutions were filled at the above selected doses. Cultures were grown for 18 hr in LB at 30° C. and adjusted to OD 0.1 at 600 nm. 20 μL of the culture were added into each well and the remainder of the volume to 200 μL per well was filled with LB. Unused external wells were filled with 200 μL of sterile water to prevent evaporation.
(§4) After 24 hr of incubation, supernatants were discarded, and the wells were washed three times with 200 μL of sterile phosphate buffered saline (PBS). Bacteria adhered to the wells were fixed with 200 μL of methanol for 15 min, the methanol was discarded, and the plates dried at 25° C.
(§5) Each well was stained with 200 μL of 0.3% (w/v) crystal violet solution for 5 min at 25° C. Crystal violet excess was pipetted out, and the wells were rinsed five times with sterile PBS. 200 μL of 33% (v/v) glacial acetic acid were added to the wells for 30 min to solubilise the dye adhered to the cell walls. Optical density (OD) was measured at 595 nm using a microplate spectrophotometer as a direct measure of biofilm formation. P. aeruginosa in 3% DMSO will be used as the negative control.

Escherichia coli O157:H7 = assay: as above; assay type: cell-based; details: for Biofilm (OD 595 nm): 24 hr; for Biofilm (OD 595 nm) / biofilm formed (CVSA), in words: 30° C.
Experimental: as §3, §4, §5
as §1, with “μg” for “ug”, “phenylcapsaicin” for “V”, “μL” for “μl”, “double and then quadruple” for “double”, “500/125/31.25 (32)/7.81 (8)” for “500/125//31.25/7.81”
as §2, with “E. coli O157:H7” for “P. aeruginosa (ATCC® 15442)”, “E. coli O157:H7” for “ATCC® 15442”, “37°” for “30°”
Crystal violet staining assay was performed as in Experiment 3, using E. coli O157:H7 in 3% DMSO as the control.

[2] = tested on: Chromobacterium violaceum CV026; assay: Quorum sensing inhibition, disc-diffusion assay with Chromobacterium violaceum CV026 (QS and antibacterial zones); assay type: cell-based; details: for QS (zone of quorum sensing inhibition): disc diffusion, zone past the disk; for zone of inhibition at 7.81 µg/mL / zone of inhibition at 15.63 µg/mL / zone of inhibition at 31.13 µg/mL / zone of inhibition at 62.5 µg/mL / zone of inhibition at 125 µg/mL / zone of inhibition at 250 µg/mL / zone of inhibition at 500 µg/mL: Chromobacterium violaceum
Experimental: Chromobacterium violaceum CV026 is a violacein negative, double mini-Tn5 mutant from C. violaceum (ATCC 31532) that was used to identify quorum sensing inhibition.
as §1, with “ug of compound V and” for “ug of V and”, “to yield 500/250/125/62.5/31.25/15.625/7.81 μg/ml test” for “to yield 500/125//31.25/7.81 μg/ml test”
Chromobacterium violaceum CV026 was used to determine the anti-quorum sensing activity. Inducer N-hexanoyl homoserine lactone (C6-HSL) was purchased from Sigma-Aldrich. CV026 was cultivated in Luria-Bertani (LB) medium (LB, 5 g yeast extract, 10 g tryptone, 5 g NaCl, 1 L water) at 30° C. overnight under aerobic conditions. A standard disc-diffusion assay was used to detect anti-quorum sensing activity of V and capsaicin by making use of double layer culture plates. 15 ml LB medium (2.5% agar) was overlaid with 15 ml LB (1.0% agar) containing 50 μl C. violaceum CV026 with 20 μg/ml-1 kanamycin and 50 ng/ml C6-AHL. Test concentrations of V and capsaicin were added onto sterile disks (8 mm diameter) and placed on the agar. The plates were then incubated overnight at 30° C. and quorum sensing inhibition was detected as a less colored/colourless zone around the disk, where viable cells, indicative of growth but quorum sensing inhibition, were present. Measurements were made from the outer edge of the discs to the edge of the zones of anti-quorum sensing inhibition. The formulation solvent (10% aqueous ethanol) was used as the negative control.
The biosensor strain, C. violaceum CV026, is a mutant of the wild type strain and is unable to produce its own AHL signal. It only responds to exogenous active signal molecules and produces a purple color, violacein. Loss of this purple color around the disk when incubated with exogenous AHL is thus indicative of QS inhibition by the test compounds. More specifically, the zone (mm past the disk) of QS inhibition results in an opaque disc with no purple color but bacterial growth. […] The results are shown below in Table 1, wherein QS denotes quorum sensing.

[3] = CV026, read-out: Antibacterial (zone of growth inhibition)
[4] = CV026, read-out: QS (zone of quorum sensing inhibition)

## COc1cc(CNC(=O)CCCC/C=C/C(C)C)ccc1O [Capsaicin, (E)-N-(4-hydroxy-3-methoxybenzyl)-8-methylnon-6-enamide, reference compound]
[1]; 7.81 μg/mL
  Biofilm (OD 595 nm): 7.1^a OD 595 nm
[1]; 31.125 μg/mL
  Biofilm (OD 595 nm): 7.0^a OD 595 nm
[1]; 125 μg/mL
  Biofilm (OD 595 nm): 7.2^a OD 595 nm
[1]
  inhibition of biofilm formation, conclusion in words: did not exhibit any biofilm formation inhibition
  biofilm formed (CVSA), in words: did not show any reduction of biofilm formation
Escherichia coli O157:H7; 8 μg/mL
  Biofilm (OD 595 nm): 5.9^a OD 595 nm
Escherichia coli O157:H7; 32 μg/mL
  Biofilm (OD 595 nm): 5.8^a OD 595 nm
Escherichia coli O157:H7; 125 μg/mL
  Biofilm (OD 595 nm): 5.1^a OD 595 nm
Escherichia coli O157:H7; 125, 32 and 8 μg/ml, any dose tested
  biofilm formation inhibition, in words: did not show any reduction of biofilm formation; also recorded: did not exhibit any biofilm formation inhibition
[2]; 62.5 μg/mL
  QS (zone of quorum sensing inhibition): NO
[2]; 125 μg/mL
  QS (zone of quorum sensing inhibition): NO
[2]; 250 μg/mL
  QS (zone of quorum sensing inhibition): NO
[2]; 500 μg/mL
  QS (zone of quorum sensing inhibition): NO
[2]; [3]
  zone of inhibition at 7.81 µg/mL: 0 mm
  zone of inhibition at 15.63 µg/mL: 0 mm
  zone of inhibition at 31.13 µg/mL: 0 mm
  zone of inhibition at 62.5 µg/mL: 8 mm
  zone of inhibition at 125 µg/mL: 9 mm
  zone of inhibition at 250 µg/mL: 14 mm
  zone of inhibition at 500 µg/mL: 11 mm
[2]; [4]
  zone of inhibition at 7.81 µg/mL: 0 mm
  zone of inhibition at 15.63 µg/mL: 0 mm
  zone of inhibition at 31.13 µg/mL: 0 mm
[2]; non antibacterial doses (31.25/15.625/7.81 μg/ml)
  quorum sensing inhibiting activity (in words): did not exhibit quorum sensing inhibiting activity

## COc1cc(CNC(=O)CCCCC#Cc2ccccc2)ccc1O [Phenylcapsaicin, N-[(4-hydroxy-3-methoxyphenyl)methyl]-7-phenylhept-6-ynamide]
[1]; 7.81 μg/mL
  Biofilm (OD 595 nm): 1.7^b OD 595 nm
[1]; 31.125 μg/mL
  Biofilm (OD 595 nm): 1.3^b OD 595 nm
[1]; 125 μg/mL
  Biofilm (OD 595 nm): 1.9^b OD 595 nm
[1]
  inhibition of biofilm formation, conclusion in words: potent inhibitor of biofilm formation
  biofilm formed (CVSA), in words: significantly reduced
Escherichia coli O157:H7; 8 μg/mL
  Biofilm (OD 595 nm): 4.9^b OD 595 nm
Escherichia coli O157:H7; 8 μg/ml lowest dose tested
  biofilm formed (CVSA), in words: no effect
Escherichia coli O157:H7; 32 μg/mL
  Biofilm (OD 595 nm): 2.4^b OD 595 nm
Escherichia coli O157:H7; 125 and 32 μg/ml
  biofilm formed (CVSA), in words: significantly reduced; also recorded: good inhibitor of biofilm formation
[2]; 125 μg/mL
  QS (zone of quorum sensing inhibition): NO
[2]; 250 μg/mL
  QS (zone of quorum sensing inhibition): NO
[2]; 500 μg/mL
  QS (zone of quorum sensing inhibition): NO
[2]; 61.5/31.25/15.625/7.81 μg/ml doses
  quorum sensing inhibiting activity (in words): strong to weak
[2]; [3]
  zone of inhibition at 7.81 µg/mL: 0 mm
  zone of inhibition at 15.63 µg/mL: 0 mm
  zone of inhibition at 31.13 µg/mL: 0 mm
  zone of inhibition at 62.5 µg/mL: 3 mm
  zone of inhibition at 125 µg/mL: 5 mm
  zone of inhibition at 250 µg/mL: 9 mm
  zone of inhibition at 500 µg/mL: 10 mm
[2]; [4]
  zone of inhibition at 7.81 µg/mL: 3 mm
  zone of inhibition at 15.63 µg/mL: 9 mm
  zone of inhibition at 31.13 µg/mL: 11 mm
  zone of inhibition at 62.5 µg/mL: 7 mm
[2]; higher doses (500/250/125 μg/ml)
  antibacterial activity (in words): antibacterial activity
